Laboratory results from patent publication US20190216891A1, “METHOD FOR MODULATING MYELINATION” (Yeda Research and Development Co., Ltd., priority 2016, published 2019).
Entries after “also recorded” stand apart in the source; their conditions may differ.

Experiments:
Assay type in all cases: cell-based, mouse
[1] = system: nuclear translocation of ERK1/2; experiment: Nuclear localization of pERK in cultured OPCs (immunolabeling pERK, PLP, Dapi); details: Gpr37−/− OPCs (DIV7)
Protocol: (§1) FIGS. 11A-B illustrate that EPE blocks the nuclear translocation of pERK in Gpr37 null oligodendrocytes. A. Cultured OPCs isolated from WT and Gpr37^−/− mice were grown for 3 days (DIV2-DIVS) in the presence or absence (control) of EPE, followed by immunolabeling with antibodies to pERK and PLP. The nuclei were labeled with Dapi. PLP and pERK immunoreactivity are shown in separate images along with the Dapi signal. Higher magnification of the nucleus is shown in the insets in each panel. […] Scale bar, 50 μm. […] Cultures were grown in the absence (DME), or presence of EPE, PLX4032, or DMSO as control for 6 days, and then fixed at DIV7 and labeled with antibodies to Olig2. The number of positive cells per field of view is shown in the graph. Bars represent mean±SEM (n=3 different cultures per each genotype; 10 fields of view were analyzed for each culture).
FIGS. 12A-D illustrate the involvement of cAMP in Gpr37 signaling in oligodendrocytes. A-B. Absence of Gpr37 results in increased levels of cAMP in mice brain (A) and cultured OPCs (B). Intracellular cAMP was extracted from P70 mice brains (*P<0.05, t-test; n=6 WT and n=7 KO mice), or from DIV5 cultured OPCs (*P<0.01, t-test; n=3 different OPC primary cultures of each genotype) and detected by ELISA. C. Adenylate cyclase inhibition prevents the nuclear translocation of pERK in Gpr37^−/− OPCs. Cultured wild type (WT) and Gpr37^−/− OPCs (DIV7) were left untreated (control) or treated with the adenylyl cyclase inhibitor SQ22536 (0.1 mM) for 2 hours in their growth medium. Cells were then fixed and labeled with Dapi to mark their nuclei, and with antibodies to PLP and pERK. […] Bars show mean±SEM (*P<0.01, t-test; n=3 different primary cultures for each genotype; 50 PLP-positive cells were counted per each culture).
FIGS. 13A-B illustrate that inhibition of Epac activity attenuates nuclear translocation of ERK1/2 in oligodendrocytes lacking GPR37. […] Bars show mean±SEM (*P<0.05, **P<0.01, t-test; n=3 different primary cultures for each genotype; 100 PLP-positive cells were counted per each culture). […]

wild type OPC cultures = experiment: Oligodendrocyte differentiation in wild type OPC cultures (PLP and O4 immunolabeling); details: wild type OPC cultures grown four days with 1mM IBMX
Protocol: A. Immunolabeling of wild type OPC cultures grown for four days in the absence (Control) or presence of 1mM 3-isobutyl-1-methylxanthine (IBMX) using antibodies to PLP and O4. Dapi was used to label the nuclei. Scale bar, 50 μm. B. Percentage of PLP-positive oligodendrocytes among the total O4-positive cells (**P<0.01, t-test, n=3 cultures). Bars represent mean±SEM.
Immunofluorescence and Immunoblotting For immunohistochemistry, mice were anesthetized and perfused with 2% PFA/PBS. Brains and optic nerves were isolated and post fixed on ice for 15 min, followed by 30% sucrose/ PBS at 4° C. overnight. Tissues were embedded in OCT and sectioned. Sections were permeabilized in methanol at −20° C. for 5 min. Immunostaining of GPR37 was carried out using 2%PFA-perfused mouse brain sections that were permeabilized with cold acetone and blocked with 5% fish gelatin and 0.5% Triton-X100 at RT for 1 hr. For immunocytochemistry, cells were fixed with 4% PFA/ PBS for 15min at room temperature. For O4 staining, live cells were incubated with medium containing the O4 antibody at 37° C. for 45min before fixation. […] Western blot analysis was done using OPC cultures lysed in loading buffer and chemiluminescence was detected using the ChemiDoc MP System (Bio-Rad). […]

[2] = system: oligodendrocytes co-cultured with DRG neurons; experiment: OPC/DRG neuron co-cultures: PLP-positive oligodendrocytes associated with axonal Caspr clustering
Description: FIGS. 5A-H illustrate that Gpr37-dependent inhibition of oligodendrocyte differentiation is mediated by ERK phosphorylation and nuclear translocation. A. Immunolabeling of sagittal brain sections of P12 brain stems from wild type (WT) and KO (Gpr37^−/−) mice using antibodies to phosphorylated ERK (pERK) and Olig2. B. The number of pERK and Olig2 positive cells in Gpr37^−/− compared to WT brainstem (*P<0.05, n=5 images from two mice per genotype). C. Western blot analysis of purified OPC cultures at DIV7 (three cultures per each genotype are shown). Blots were incubated with antibodies to pERK or general ERK (ERK) as indicated. D. Relative value of pERK intensity normalized by general ERK (p=0.02, n=7 cultures each genotype). E. pERK is present in the nucleus of oligodendrocytes lacking Gpr37. […] (* p<0.05, n=3 different primary cultures for each genotype; 100 PLP-positive oligodendrocytes were counted per each culture). […] H. Quantitation of the results showing the fold change in the percent of PLP-positive cells that associate with axonal Caspr immunoreactivity in all samples compare to the non-treated wild type cultures. […]
Immunofluorescence and Immunoblotting For immunohistochemistry, mice were anesthetized and perfused with 2% PFA/PBS. […] Western blot analysis was done using OPC cultures lysed in loading buffer and chemiluminescence was detected using the ChemiDoc MP System (Bio-Rad). […]

[3] = system: oligodendrocytes co-cultured with DRG neurons; experiment: Number of Olig2 cells in oligodendrocyte/DRG neuron co-cultures; details: both genotypes (WT and Gpr37−/−); 6 days treatment, fixed at DIV7
Protocol: as §1
Immunofluorescence and Immunoblotting For immunohistochemistry, mice were anesthetized and perfused with 2% PFA/PBS. Brains and optic nerves were isolated and post fixed on ice for 15 min, followed by 30% sucrose/ PBS at 4° C. overnight. Tissues were embedded in OCT and sectioned. Sections were permeabilized in methanol at −20° C. for 5 min. […] Western blot analysis was done using OPC cultures lysed in loading buffer and chemiluminescence was detected using the ChemiDoc MP System (Bio-Rad). […]

## CC(C)(C)c1cc(C(=O)/C(C#N)=N/Nc2cccc(Cl)c2)no1 [ESI-09]
[1]; ESI-09 1 μM for 2 hours, vs DMSO
  number of oligodendrocytes displaying nuclear localization of pERK (ERK1/2): significant decrease; also recorded: reduced to equivalent level of wild type cells

## CC(C)Cn1c(=O)n(C)c(=O)c2[nH]cnc21 [IBMX, 3-isobutyl-1-methylxanthine]
Wild type OPC cultures
  oligodendrocyte differentiation (percentage of PLP-positive oligodendrocytes among total O4-positive cells): enhances the differentiation; also recorded: enhances oligodendrocyte differentiation

## CCCS(=O)(=O)Nc1ccc(F)c(C(=O)c2c[nH]c3ncc(-c4ccc(Cl)cc4)cc23)c1F [PLX4032]
[2]; Gpr37−/− oligodendrocytes with wild type DRG neurons, 6 days in 10 μM EPE or 1 μM PLX4032, vs DMSO control
  number of PLP-positive oligodendrocytes associated with intense axonal clustering of Caspr: completely abolished; also recorded: significantly low number
[2]; wild type cultures, 6 days in 10 μM EPE or 1 μM PLX4032
  PLP-positive oligodendrocytes associated with axonal clustering of Caspr: no effect
[3]
  number of Olig2 cells (per field of view): do not affect

## Nc1ncnc2c1ncn2C1CCCO1 (stereo not shown) [SQ 22536]
[1]; SQ22536 0.1 mM for 2 hours
  number of oligodendrocytes displaying nuclear localization of pERK (ERK1/2): significant decrease
[1]; SQ22536 0.1 mM for 2 hours, listed as SQ22536
  number of oligodendrocytes displaying nuclear localization of pERK (ERK1/2): reduced to equivalent levels of wild type cells
